Test results: ChEMBL document CHEMBL5576074, “[1,2,4]Triazolo[1,5-a]pyrimidine derivatives: Structure-activity relationship study leading to highly selective ENPP1 inhibitors” (Bioorg Med Chem Lett, 2024)

Experiments:
Autotaxin [1] = biological target: T1, Autotaxin (Homo sapiens, UniProt Q13822); experiment: Inhibition of ENPP2 (unknown origin) at 50 uM relative to control
[2] = biological target: T2, Ectonucleotide pyrophosphatase/phosphodiesterase family member 1 (Homo sapiens, UniProt P22413); experiment: Inhibition of ENPP1 (unknown origin)
T2 sequence (P22413 whole entry): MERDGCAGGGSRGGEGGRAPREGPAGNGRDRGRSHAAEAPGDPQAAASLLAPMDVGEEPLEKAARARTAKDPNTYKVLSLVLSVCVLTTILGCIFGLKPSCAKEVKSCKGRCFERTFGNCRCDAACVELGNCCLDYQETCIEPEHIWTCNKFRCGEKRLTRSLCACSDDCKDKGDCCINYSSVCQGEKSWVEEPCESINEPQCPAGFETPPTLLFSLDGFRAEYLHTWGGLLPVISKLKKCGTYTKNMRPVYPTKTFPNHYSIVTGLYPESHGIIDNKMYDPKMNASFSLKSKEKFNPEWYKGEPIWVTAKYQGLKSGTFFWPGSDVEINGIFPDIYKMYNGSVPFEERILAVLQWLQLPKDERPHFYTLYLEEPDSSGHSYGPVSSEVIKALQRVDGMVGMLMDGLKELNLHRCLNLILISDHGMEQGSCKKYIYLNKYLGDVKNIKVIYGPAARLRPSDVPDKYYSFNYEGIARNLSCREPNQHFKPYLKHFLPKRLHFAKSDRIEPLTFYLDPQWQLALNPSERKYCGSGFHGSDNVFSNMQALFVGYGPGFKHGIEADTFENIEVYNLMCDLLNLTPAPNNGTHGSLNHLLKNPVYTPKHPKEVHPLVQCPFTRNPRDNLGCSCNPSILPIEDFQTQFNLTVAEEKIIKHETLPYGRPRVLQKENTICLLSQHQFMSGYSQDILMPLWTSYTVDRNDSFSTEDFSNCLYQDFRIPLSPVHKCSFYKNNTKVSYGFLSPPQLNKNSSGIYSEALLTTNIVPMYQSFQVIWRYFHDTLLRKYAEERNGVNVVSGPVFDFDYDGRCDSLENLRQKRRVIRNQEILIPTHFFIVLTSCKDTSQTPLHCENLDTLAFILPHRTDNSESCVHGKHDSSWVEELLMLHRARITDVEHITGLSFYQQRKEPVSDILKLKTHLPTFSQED

[3] = biological target: T3, Ectonucleotide pyrophosphatase/phosphodiesterase family member 3 (Homo sapiens) (UniProt O14638); experiment: Inhibition of ENPP3 (unknown origin) at 50 uM relative to control
T3 sequence (whole entry): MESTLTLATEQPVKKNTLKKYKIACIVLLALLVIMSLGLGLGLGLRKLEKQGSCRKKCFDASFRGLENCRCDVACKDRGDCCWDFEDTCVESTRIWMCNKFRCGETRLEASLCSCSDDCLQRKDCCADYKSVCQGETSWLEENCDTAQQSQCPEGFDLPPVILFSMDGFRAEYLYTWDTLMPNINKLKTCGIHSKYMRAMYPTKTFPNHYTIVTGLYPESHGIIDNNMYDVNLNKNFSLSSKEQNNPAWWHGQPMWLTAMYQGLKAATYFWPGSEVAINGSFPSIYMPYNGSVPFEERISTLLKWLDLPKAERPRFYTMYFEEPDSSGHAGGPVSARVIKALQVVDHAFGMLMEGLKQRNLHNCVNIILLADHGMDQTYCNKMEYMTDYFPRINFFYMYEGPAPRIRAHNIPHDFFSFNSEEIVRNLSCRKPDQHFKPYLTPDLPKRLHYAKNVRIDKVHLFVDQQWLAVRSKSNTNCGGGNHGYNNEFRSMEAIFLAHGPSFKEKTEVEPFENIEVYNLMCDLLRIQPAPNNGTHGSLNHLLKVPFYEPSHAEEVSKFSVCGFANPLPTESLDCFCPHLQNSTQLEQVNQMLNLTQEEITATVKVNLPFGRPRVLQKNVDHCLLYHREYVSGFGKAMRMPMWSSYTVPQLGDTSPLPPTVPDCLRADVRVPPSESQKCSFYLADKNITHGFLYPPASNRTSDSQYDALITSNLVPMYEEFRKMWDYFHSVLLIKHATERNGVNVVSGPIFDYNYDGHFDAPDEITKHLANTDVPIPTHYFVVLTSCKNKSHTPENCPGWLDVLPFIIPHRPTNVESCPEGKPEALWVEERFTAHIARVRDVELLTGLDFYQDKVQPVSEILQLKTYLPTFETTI

[4] = biological target: T4, Glycerophosphocholine cholinephosphodiesterase ENPP6 (Homo sapiens, UniProt Q6UWR7); experiment: Inhibition of ENPP6 (unknown origin)
T4 sequence (Q6UWR7 whole entry): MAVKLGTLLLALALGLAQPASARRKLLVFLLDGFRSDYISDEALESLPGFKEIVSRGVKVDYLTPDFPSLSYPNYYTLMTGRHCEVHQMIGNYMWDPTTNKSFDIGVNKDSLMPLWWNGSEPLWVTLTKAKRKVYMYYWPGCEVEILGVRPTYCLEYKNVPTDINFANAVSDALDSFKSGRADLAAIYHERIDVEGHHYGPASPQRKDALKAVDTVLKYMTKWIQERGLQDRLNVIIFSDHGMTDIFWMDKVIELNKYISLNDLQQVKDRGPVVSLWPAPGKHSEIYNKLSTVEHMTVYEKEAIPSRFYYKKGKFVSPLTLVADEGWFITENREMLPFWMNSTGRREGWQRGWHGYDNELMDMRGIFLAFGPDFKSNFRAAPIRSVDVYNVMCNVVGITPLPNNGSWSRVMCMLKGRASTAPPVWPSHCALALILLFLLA

Autotaxin [5] = biological target: T1, Autotaxin; experiment: Inhibition of ENPP2 (unknown origin)
[6] = biological target: T5, Ectonucleotide pyrophosphatase/phosphodiesterase family member 3 (Homo sapiens, UniProt O14638); experiment: Inhibition of ENPP3 (unknown origin)
T5 sequence (O14638 whole entry): T3 sequence (whole entry)

[7] = biological target: T6, Glycerophosphocholine cholinephosphodiesterase ENPP6 (Homo sapiens) (UniProt Q6UWR7); experiment: Inhibition of ENPP6 (unknown origin) at 50 uM relative to control
T6 sequence (whole entry): T4 sequence (Q6UWR7 whole entry)

| SMILES | inhibition (Autotaxin [1]) [%] | IC50 [2] [µM] | inhibition [3] [%] | IC50 [4] [µM] | IC50 (Autotaxin [5]) [µM] | IC50 [6] [µM] | inhibition [7] [%] |
| --- | --- | --- | --- | --- | --- | --- | --- |
| CC(=O)Nc1cccc(Cc2c(C)nc3ncnn3c2N(C)C)c1 | < 1 | 2.3 | 3 | > 50 | > 50 | > 50 | < 1 |
| Cc1nc2ncnn2c(N(C)C)c1Cc1ccc(N)cc1 | 7.7 | 0.47 | 12 | > 50 | > 50 | > 50 | < 1 |
| Cc1nc2ncnn2c(N(C)C)c1CC1CCCCC1 | < 1 | > 30 | 3.7 | > 50 | > 50 | > 50 | < 1 |
| Cc1cc(N(C)C)n2ncnc2n1 | < 1 | 28 | 10 | > 50 | > 50 | > 50 | < 1 |
| Cc1nc2ncnn2c(N(C)C)c1Cc1cccc(F)c1 | 14 | 1.5 | 6.3 | > 50 | > 50 | > 50 | < 1 |
| Cc1nc2ncnn2c(N(C)C)c1Cc1ccc(Cl)cc1 | 4.9 | 5.7 | 1.5 | > 50 | > 50 | > 50 | 2 |
| CCNc1c(Cc2ccccc2)c(C)nc2ncnn12 | 7.8 | 22 | 7 | > 50 | > 50 | > 50 | < 1 |
| C#CCNc1c(Cc2ccccc2)c(C)nc2ncnn12 | 1.4 | > 30 | 24 | > 50 | > 50 | > 50 | < 1 |
| CCCN(CCC)c1c(Cc2ccccc2)c(C)nc2ncnn12 | 5.5 | > 30 | < 1 | > 50 | > 50 | > 50 | < 1 |
| Cc1nc2ncnn2c(NCCCCC(=O)O)c1Cc1cccc(N)c1 | 27 | 3.6 | 22 | > 50 | > 50 | > 50 | 3.5 |
| COc1cccc(Cc2c(C)nc3ncnn3c2N(C)C)c1 | 31 | 1.6 | 6.5 | > 50 | > 50 | > 50 | < 1 |
| Cc1nc2ncnn2c(NCc2ccccc2)c1Cc1cccc(N)c1 | < 1 | 9 | 11 | > 50 | > 50 | > 50 | < 1 |
| Cc1nc2ncnn2c(NCCCC(=O)O)c1Cc1cccc(N)c1 | 22 | 11 | 11 | > 50 | > 50 | > 50 | 3.7 |
| CCN(CC)c1c(Cc2ccccc2)c(C)nc2ncnn12 | 1.9 | > 30 | < 1 | > 50 | > 50 | > 50 | < 1 |
| Cc1nc2ncnn2c(NCc2cccnc2)c1Cc1cccc(N)c1 | < 1 | 7 | 12 | > 50 | > 50 | > 50 | < 1 |
| CNc1c(Cc2ccccc2)c(C)nc2ncnn12 | < 1 | > 30 | 10 | > 50 | > 50 | > 50 | < 1 |
| Cc1nc2ncnn2c2c1Cc1ccccc1N2 | < 1 | > 30 | 21 | > 50 | > 50 | > 50 | < 1 |
| CCCNc1c(Cc2ccccc2)c(C)nc2ncnn12 | 12 | 32 | 5.2 | > 50 | > 50 | > 50 | 3.8 |
| Cc1nc2ncnn2c(N(C)C)c1Cc1cccc([N+](=O)[O-])c1 | 11 | 3.6 | 4.3 | > 50 | > 50 | > 50 | < 1 |
| Cc1nc2ncnn2c(N(C)C)c1Cc1ccccc1[N+](=O)[O-] | 4.7 | 3.1 | 6.8 | > 50 | > 50 | > 50 | < 1 |
| Cc1cc(O)n2ncnc2n1 | < 1 | > 30 | 5.1 | > 50 | > 50 | > 50 | 2.1 |
| Cc1nc2nc(SCC(=O)O)nn2c(N(C)C)c1Cc1ccccc1 | < 1 | > 30 | < 1 | > 50 | > 50 | > 50 | < 1 |
| Cc1cccc(Cc2c(C)nc3ncnn3c2N(C)C)c1 | 9.7 | 3.1 | 4.9 | > 50 | > 50 | > 50 | 1.1 |
| CC(=O)Nc1ccc(Cc2c(C)nc3ncnn3c2N(C)C)cc1 | 5.1 | 4.9 | 8.5 | > 50 | > 50 | > 50 | 2.3 |
| Cc1nc2ncnn2c(N(C)Cc2ccccc2)c1Cc1cccc(N)c1 | < 1 | > 30 | < 1 | > 50 | > 50 | > 50 | < 1 |
| COCCNc1c(Cc2ccccc2)c(C)nc2ncnn12 | < 1 | > 30 | 3.3 | > 50 | > 50 | > 50 | < 1 |
| Cc1nc2ncnn2c(N(C)C)c1Cc1ccccc1Cl | 15 | 2.5 | 3 | > 50 | > 50 | > 50 | < 1 |
